Assay results taken from patent US10821065B2, “Peptide for inhibiting biofilms” (SEOUL NATIONAL UNIVERSITY R&DB FOUNDATION, priority 2017, dated 2020).

Columns and labels:
[1] = tested on: Streptococcus mutans biofilm; assay: Streptococcus mutans biofilm formation, 0.1% crystal violet staining; type: cell-based; settings: 37° C., 24 hours; for S. mutans biofilm formation (crystal violet), single or co-treatment: 10 μg/ml HBD3-C15, 25 μg/ml CH, 0.02% CHX, or combination, FIG. 2A
Description: To confirm the effect of HBD3-C15 on a Streptococcus mutans biofilm, Streptococcus mutans was cultured in a Brain Heart Infusion (BHI) medium. The cultured Streptococcus mutans was prepared at 1×10^7 CFU/ml, and then 1% NaCl or 0.05% sucrose was added thereto to promote biofilm formation, followed by treatment with 50 μg/ml of HBD3-C15. After incubation at 37° C. for 24 hours, 0.1% crystal violet staining was performed for comparison of the degree of biofilm formation.
In addition, 0.05% sucrose was added to Streptococcus mutans, followed with treatment with HBD3-C15 at a concentration of 10 μg/ml, 30 μg/ml, or 50 μg/ml. After incubation at 37° C. for 24 hours, 0.1% crystal violet staining was performed for comparison of the degree of biofilm formation.
To determine whether HBD3-C15 is capable of inhibiting a biofilm by synergistic effects with calcium hydroxide (CH) or chlorohexidine (CHX), which is an existing dental therapeutic agent, Streptococcus mutans was cultured in a BHI medium and then prepared at 1×10^7 CFU/ml, and treated with 10 μg/ml of HBD3-C15, 25 μg/ml of CH, 0.02% CHX, or a combination thereof in the presence of 0.05% sucrose. After incubation at 37° C. for 24 hours, 0.1% crystal violet staining was performed for comparison of the degree of biofilm formation.

[2] = tested on: Streptococcus mutans biofilm; assay: Streptococcus mutans biofilm formation, confocal microscope; type: cell-based; settings: HBD3-C15 at 10, 30 or 50 μg/ml; 0.05% sucrose; FIG. 1C
[3] = tested on: Streptococcus mutans biofilm; assay: Streptococcus mutans biofilm formation on human teeth dentin sections, scanning electron microscope; type: cell-based; settings: 10 μg/ml HBD3-C15, 25 μg/ml CH, 0.02% CHX, or combination; 0.05% sucrose; 37° C., 24 hours; FIG. 2B
Description: In addition, human teeth dentin sections were prepared to represent an actual oral infection situation, 1×10^7 CFU/ml of Streptococcus mutans was treated, on the dentin sections, with 10 μg/ml of HBD3-C15, 25 μg/ml of CH, 0.02% CHX, or a combination thereof in the presence of 0.05% sucrose. After incubation at 37° C. for 24 hours, comparison of the degree of biofilm formation was conducted using a scanning electron microscope.

[4] = tested on: Enterococcus faecalis biofilm; assay: Enterococcus faecalis biofilm formation on dentin sections, scanning electron microscope; type: cell-based; settings: 5×10^6 CFU/ml; 10 μg/ml HBD3-C15, 25 μg/ml CH, 0.02% CHX, or combination; 37° C., 24 hours; FIG. 3
Description: (§1) To confirm whether the Streptococcus mutans biofilm inhibition through synergistic effects of HBD3-C15 and an existing dental therapeutic agent is reproduced in the formation of biofilms formed by other dental infectious bacteria, Enterococcus faecalis and Streptococcus gordonii were cultured in a BHI medium and a Todd Hewitt yeast (THY) medium, respectively, and then E. faecalis and S. gordonii were prepared at 5×10^6 CFU/ml and 1×10^8 CFU/ml, respectively, and treated, on the dentin sections, with 10 μg/ml of HBD3-C15, 25 μg/ml of CH, 0.02% CHX, or a combination thereof. After incubation at 37° C. for 24 hours, comparison of the degree of biofilm formation was conducted using a scanning electron microscope.

[5] = tested on: Streptococcus gordonii biofilm; assay: Streptococcus gordonii biofilm formation on dentin sections, scanning electron microscope; type: cell-based; settings: 1×10^8 CFU/ml; 10 μg/ml HBD3-C15, 25 μg/ml CH, 0.02% CHX, or combination; 37° C., 24 hours; FIG. 3
Description: as §1

[6] = Tooth discoloration of treated dentin sections, photographed; set-up: species or system human; settings: 30 μg/ml HBD3-C15, 0.002% CHX, 0.02% CHX, or combination (2% CHX positive control), 37° C., 7 days, FIG. 5
Description: According to previous papers, it has been reported that CHX, which is a typical dental therapeutic agent, causes side effects such as tooth discoloration. Thus, to confirm the effect of treatment with HBD3-C15 alone or a combination of HBD3-C15 and CHX on tooth discoloration, dentin sections were treated with 30 μg/ml of HBD3-C15, 0.002% CHX, 0.02% CHX, or a combination thereof, and 2% CHX was used as a positive control. Subsequently, the dentin sections were cultured at 37° C. for 7 days and photographed to observe the degree of tooth discoloration.

Compound | S. mutans biofilm formation (crystal violet), single or co-treatment ([1]; 0.05% sucrose) | formation of Streptococcus mutans biofilm (crystal violet) ([1]; 50 μg/ml HBD3-C15, biofilm promoted by 0.05% sucrose, FIG. 1A) | formation of Streptococcus mutans biofilm (crystal violet) ([1]; 50 μg/ml HBD3-C15, biofilm promoted by 1% NaCl, FIG. 1A) | formation of Streptococcus mutans biofilm (crystal violet) ([1]; HBD3-C15 at 10, 30 or 50 μg/ml, 0.05% sucrose, FIG. 1B) | formation of Streptococcus mutans biofilm (confocal microscope) [2] | S. mutans biofilm formation on dentin sections (SEM), single or co-treatment [3] | E. faecalis biofilm formation on dentin sections (SEM), single or co-treatment [4] | S. gordonii biofilm formation on dentin sections (SEM), single or co-treatment [5] | tooth discoloration [6]
G-K-C-S-T-R-G-R-K-C-C-R-R-K-K [HBD3-C15] | inhibited | inhibited | inhibited | inhibited in a concentration-dependent manner | inhibit formation of a biofilm in a concentration-dependent manner | inhibited | inhibited | inhibited | 
[Ca+2].[OH-].[OH-] [CH, calcium hydroxide] | inhibited |  |  |  |  | inhibited | inhibited | inhibited | 
N=C(NCCCCCCNC(=N)NC(=N)Nc1ccc(Cl)cc1)NC(=N)Nc1ccc(Cl)cc1 [CHX, chlorohexidine] | inhibited |  |  |  |  | inhibited | inhibited | inhibited | induced by treatment with CHX alone in a concentration-dependent manner
